Laboratory results published in US10550165B2, “Peptide for inducing regeneration of tissue and use thereof” (STEMRIM INC., priority 2011, dated 2020).

What follows are substances tested on mouse bone marrow mesenchymal stem cell line (MSC-1 cells), PDGFRα-positive (assay: Migration assay (Boyden / 48-well chemotaxis chamber) on bone marrow mesenchymal stem cell line MSC-1). Details: peptides produced using HEK293, concentration not stated.
Assay type: cell-based
Procedure: Cells of a mouse bone marrow mesenchymal stem cell line (MSC-1 cells, established by Tamai et al. of Osaka University (PDGFRα-positive cells in bone marrow are mobilized by high mobility group box 1 (HMGB1) to regenerate injured epithelia. (Tamai et al., Proc Natl Acad Sci USA. Apr. 4, 2011))) were detached from dishes using trypsin, and collected by centrifugation at 1200 rpm and 4° C. for 10 minutes. The resulting pellet was loosened and suspended at a cell concentration of 2.0×10^6 to 3.0×10^6 cells/ml by adding Dulbecco's Modified Eagle Medium (D-MEM) containing 10% fetal bovine serum (FBS). The recombinant protein and peptides produced in HEK293 were diluted with D-MEM containing 10% FBS. The negative control used was phosphate buffered saline (PBS). An acrylic Boyden chamber was used; cells of the mouse bone marrow mesenchymal stem cell line prepared at a cell concentration of 3×10^6 cells/ml were placed in its upper layer, while a diluted protein or peptide is added to the bottom layer. More specifically, a 28 μl aliquot of a protein or peptide solution was added to each well of the bottom plate of a 48-well chemotaxis chamber (NEURO PROBE 48WELL CHEMOTAXIS CHAMBER), and a polycarbonate membrane with 8 μm pores (Neuro Probe, Inc, Cat: 866-417-0014) was placed on the bottom plate. Then, an upper plate was placed on the membrane and screwed tightly. 50 μl of cells of the mouse bone marrow mesenchymal stem cell line after concentration adjustment were added to the upper plate wells. The chamber was placed in an incubator under 5% CO2 at 37° C. After four hours, the membrane was removed from the chamber and stained with Diff-Quik (Sysmex, Cat: 16920) to detect cells that migrated through membrane pores to the lower compartment.
The peptides listed below were custom synthesized using the solid phase method by Medical & Biological Laboratories (MBL). The peptides were synthesized based on the mouse HMGB1 sequence (SEQ ID NO: 3). Synthetic peptides described in subsequent Examples were also prepared based on the mouse HMGB1 sequence. • A synthetic peptide consisting of the amino acid sequence from positions 1 to 10 of HMGB1 (1-10); • a synthetic peptide consisting of the amino acid sequence from positions 1 to 34 of HMGB1 (1-34); • a synthetic peptide consisting of the amino acid sequence from positions 37 to 62 of HMGB1 (37-62); • a synthetic peptide consisting of the amino acid sequence from positions 27 to 62 of HMGB1 (27-62); • a synthetic peptide consisting of the amino acid sequence from positions 56 to 72 of HMGB1 (56-72); • a synthetic peptide consisting of the amino acid sequence from positions 11 to 20 of HMGB1 (11-20); • a synthetic peptide consisting of the amino acid sequence from positions 11 to 25 of HMGB1 (11-25); • a synthetic peptide consisting of the amino acid sequence from positions 11 to 30 of HMGB1 (11-30); • a synthetic peptide consisting of the amino acid sequence from positions 11 to 34 of HMGB1 (11-34); • a synthetic peptide consisting of the amino acid sequence from positions 11 to 44 of HMGB1 (11-44); • a synthetic peptide consisting of the amino acid sequence from positions 17 to 44 of HMGB1 (17-44); • a synthetic peptide consisting of the amino acid sequence from positions 1 to 25 of HMGB1 (1-25); and the whole mouse HMGB1 produced in HEK293 (1-215(HEK)) as a positive control were adjusted to 100 μg/ml and placed in the lower layer of a chemotaxis chamber to assess the migration-promoting activity on bone marrow mesenchymal stem cell line (MSC-1). Results
As positive controls, centrifuged supernatant of the skin of a one-day-old mouse (one individual) incubated in PBS at 4° C. for 12 hours, and the whole mouse HMGB1 (HMGB1(HEK_1-215)) produced in HEK293 were used. […]

Substance | activity of promoting the migration of MSC-1
1-46: peptide comprising the amino acid sequence of positions 1 to 46, produced using HEK293 (MGKGDPKKPRGKMSSYAFFVQTCREEHKKKHPDASVNFSEFSKKCS; UniProt P63158 1-46, looked up, fragment) | showed the activity of promoting the migration of bone marrow mesenchymal stem line MSC-1
1-45: peptide comprising the amino acid sequence of positions 1 to 45, produced using HEK293 (MGKGDPKKPRGKMSSYAFFVQTCREEHKKKHPDASVNFSEFSKKC; UniProt P63158 1-45, looked up, fragment) | showed the activity of promoting the migration of bone marrow mesenchymal stem line MSC-1
1-50: peptide comprising the amino acid sequence of positions 1 to 50, produced using HEK293 (MGKGDPKKPRGKMSSYAFFVQTCREEHKKKHPDASVNFSEFSKKCSERWK; UniProt P63158 1-50, looked up, fragment) | showed the activity of promoting the migration of bone marrow mesenchymal stem line MSC-1
1-49: peptide comprising the amino acid sequence of positions 1 to 49, produced using HEK293 (MGKGDPKKPRGKMSSYAFFVQTCREEHKKKHPDASVNFSEFSKKCSERW; UniProt P09429 1-49, looked up, fragment) | showed the activity of promoting the migration of bone marrow mesenchymal stem line MSC-1
1-47: peptide comprising the amino acid sequence of positions 1 to 47, produced using HEK293 (MGKGDPKKPRGKMSSYAFFVQTCREEHKKKHPDASVNFSEFSKKCSE; UniProt P63158 1-47, looked up, fragment) | showed the activity of promoting the migration of bone marrow mesenchymal stem line MSC-1
1-43: peptide comprising the amino acid sequence of positions 1 to 43, produced using HEK293 (MGKGDPKKPRGKMSSYAFFVQTCREEHKKKHPDASVNFSEFSK; UniProt P09429 1-43, looked up, fragment) | showed the activity of promoting the migration of bone marrow mesenchymal stem line MSC-1
1-42: peptide comprising the amino acid sequence of positions 1 to 42, produced using HEK293 (MGKGDPKKPRGKMSSYAFFVQTCREEHKKKHPDASVNFSEFS; UniProt P63158 1-42, looked up, fragment) | showed the activity of promoting the migration of bone marrow mesenchymal stem line MSC-1

Same assay, conditions: synthetic peptides, 5 μM, FIGS. 8A and 8B

Substance | migration-promoting activity
(11-25): synthetic peptide consisting of the amino acid sequence from positions 11 to 25 of HMGB1 (GKMSSYAFFVQTCRE; UniProt P09429 11-25, looked up, fragment) | weak activity
(10-25): synthetic peptide consisting of the amino acid sequence from positions 10 to 25 of HMGB1 (RGKMSSYAFFVQTCRE; UniProt P09429 10-25, looked up, fragment) | strong migration-promoting activity
(13-25): synthetic peptide consisting of the amino acid sequence from positions 13 to 25 of HMGB1 (MSSYAFFVQTCRE; UniProt P09429 13-25, looked up, fragment) | weak activity
(11-27): synthetic peptide consisting of the amino acid sequence from positions 11 to 27 of HMGB1 (GKMSSYAFFVQTCREEH; UniProt P09429 11-27, looked up, fragment) | strong migration-promoting activity
(17-30): synthetic peptide consisting of the amino acid sequence from positions 17 to 30 of HMGB1 (AFFVQTCREEHKKK; UniProt P09429 17-30, looked up, fragment) | weak activity
(11-29): synthetic peptide consisting of the amino acid sequence from positions 11 to 29 of HMGB1 (GKMSSYAFFVQTCREEHKK; UniProt P09429 11-29, looked up, fragment) | strong migration-promoting activity
(14-30): synthetic peptide consisting of the amino acid sequence from positions 14 to 30 of HMGB1 (SSYAFFVQTCREEHKKK; UniProt P09429 14-30, looked up, fragment) | strong migration-promoting activity
(16-30): synthetic peptide consisting of the amino acid sequence from positions 16 to 30 of HMGB1 (YAFFVQTCREEHKKK; UniProt P09429 16-30, looked up, fragment) | weak activity
(12-25): synthetic peptide consisting of the amino acid sequence from positions 12 to 25 of HMGB1 (KMSSYAFFVQTCRE; UniProt P09429 12-25, looked up, fragment) | weak activity
(14-25): synthetic peptide consisting of the amino acid sequence from positions 14 to 25 of HMGB1 (SSYAFFVQTCRE; UniProt P09429 14-25, looked up, fragment) | weak activity

Same assay, conditions: synthetic peptides, 10 μM and 5 μM, FIG. 9

Substance | migration-promoting activity
(55-84): synthetic peptide consisting of the amino acids of positions 55 to 84 (KEKGKFEDMAKADKARYEREMKTYIPPKGE; UniProt P09429 55-84, looked up, fragment) | exhibited migration-promoting activity which was however weaker as compared to synthetic peptides (1-44) and (1-34)
(45-74): synthetic peptide consisting of the amino acids of positions 45 to 74 (CSERWKTMSAKEKGKFEDMAKADKARYERE; UniProt P09429 45-74, looked up, fragment) | exhibited migration-promoting activity which was however weaker as compared to synthetic peptides (1-44) and (1-34)

Same assay, conditions: synthetic peptides, 100 μg/ml, positive control 1-215(HEK), FIG. 7

Substance | migration-promoting activity
(11-25): synthetic peptide consisting of the amino acid sequence from positions 11 to 25 of HMGB1 (GKMSSYAFFVQTCRE; UniProt P09429 11-25, looked up, fragment) | found to have the activity
(11-34): synthetic peptide consisting of the amino acid sequence from positions 11 to 34 of HMGB1 (GKMSSYAFFVQTCREEHKKKHPDA; UniProt P09429 11-34, looked up, fragment) | activity comparable to or higher than that of the positive control
(11-44): synthetic peptide consisting of the amino acid sequence from positions 11 to 44 of HMGB1 (GKMSSYAFFVQTCREEHKKKHPDASVNFSEFSKK; UniProt P09429 11-44, looked up, fragment) | activity comparable to or higher than that of the positive control
(11-30): synthetic peptide consisting of the amino acid sequence from positions 11 to 30 of HMGB1 (GKMSSYAFFVQTCREEHKKK; UniProt P09429 11-30, looked up, fragment) | activity comparable to or higher than that of the positive control
